Measured values from publication PMC10178848, “Modulating fast skeletal muscle contraction protects skeletal muscle in animal models of Duchenne muscular dystrophy” (The Journal of Clinical Investigation, 2023).
Read-outs that look alike come from different tables or passages of the source.

System: GRMD plasma proteins
Type: in vivo, dog
[1] = EDG-5506 treatment to GRMD baseline, Decreased in GRMD

O=c1ccc(-c2cnc(OCC(F)(F)F)nc2)nn1Cc1cncc(F)c1 [EDG-5506]
Change from GRMD Baseline (fraction) (3-hydroxy-3-methylglutaryl-coenzyme A reductase (HMGCR), EDG-5506 treatment to GRMD baseline): 0.149 fraction | Change from GRMD Baseline (fraction) (3-hydroxy-3-methylglutaryl-coenzyme A reductase (HMGCR), Post-Treatment to GRMD baseline): -0.0053 fraction | Change from GRMD Baseline (fraction) (Annexin A5 (ANXA5), EDG-5506 treatment to GRMD baseline): 0.0604 fraction | Change from GRMD Baseline (fraction) (Annexin A5 (ANXA5), Post-Treatment to GRMD baseline): -0.0309 fraction | Change from GRMD Baseline (fraction) (Apolipoprotein M (APOM), EDG-5506 treatment to GRMD baseline): 0.1027 fraction | Change from GRMD Baseline (fraction) (Apolipoprotein M (APOM), Post-Treatment to GRMD baseline): -0.1149 fraction | Change from GRMD Baseline (fraction) (Bactericidal permeability-increasing protein (BPI), EDG-5506 treatment to GRMD baseline): 0.0745 fraction | Change from GRMD Baseline (fraction) (Bactericidal permeability-increasing protein (BPI), Post-Treatment to GRMD baseline): 0.1503 fraction | Change from GRMD Baseline (fraction) (Basigin (BSG), EDG-5506 treatment to GRMD baseline): 0.1541 fraction | Change from GRMD Baseline (fraction) (Basigin (BSG), Post-Treatment to GRMD baseline): -0.07 fraction | Change from GRMD Baseline (fraction) (Brain-derived neurotrophic factor (BDNF), EDG-5506 treatment to GRMD baseline): 0.0859 fraction | Change from GRMD Baseline (fraction) (Brain-derived neurotrophic factor (BDNF), Post-Treatment to GRMD baseline): -0.07 fraction | Change from GRMD Baseline (fraction) (Calcium/calmodulin-dependent 3',5'-cyclic nucleotide phosphodiesterase 1A (PDE1A), EDG-5506 treatment to GRMD baseline): 0.0363 fraction | Change from GRMD Baseline (fraction) (Calcium/calmodulin-dependent 3',5'-cyclic nucleotide phosphodiesterase 1A (PDE1A), Post-Treatment to GRMD baseline): -0.0044 fraction | Change from GRMD Baseline (fraction) (Carbohydrate sulfotransferase 15 (CHST15), EDG-5506 treatment to GRMD baseline): 0.0872 fraction | Change from GRMD Baseline (fraction) (Carbohydrate sulfotransferase 15 (CHST15), Post-Treatment to GRMD baseline): -0.1346 fraction | Change from GRMD Baseline (fraction) (Carbonic anhydrase 7 (CA7), EDG-5506 treatment to GRMD baseline): 0.1779 fraction | Change from GRMD Baseline (fraction) (Carbonic anhydrase 7 (CA7), Post-Treatment to GRMD baseline): 0.1249 fraction | Change from GRMD Baseline (fraction) (Cathepsin G (CTSG), EDG-5506 treatment to GRMD baseline): 0.0969 fraction | Change from GRMD Baseline (fraction) (Cathepsin G (CTSG), Post-Treatment to GRMD baseline): 0.1704 fraction | Change from GRMD Baseline (fraction) (Cathepsin H (CTSH), EDG-5506 treatment to GRMD baseline): 0.1349 fraction | Change from GRMD Baseline (fraction) (Cathepsin H (CTSH), Post-Treatment to GRMD baseline): -0.0348 fraction | Change from GRMD Baseline (fraction) (Ciliary neurotrophic factor (CNTF), EDG-5506 treatment to GRMD baseline): 0.2366 fraction | Change from GRMD Baseline (fraction) (Ciliary neurotrophic factor (CNTF), Post-Treatment to GRMD baseline): 0.313 fraction | Change from GRMD Baseline (fraction) (Collectin-11 (COLEC11), EDG-5506 treatment to GRMD baseline): -0.1017 fraction | Change from GRMD Baseline (fraction) (Collectin-11 (COLEC11), Post-Treatment to GRMD baseline): -0.0756 fraction | Change from GRMD Baseline (fraction) (Complement component C7 (C7), EDG-5506 treatment to GRMD baseline): 0.118 fraction | Change from GRMD Baseline (fraction) (Complement component C7 (C7), Post-Treatment to GRMD baseline): 0.1005 fraction | Change from GRMD Baseline (fraction) (Contactin-2 (CNTN2), EDG-5506 treatment to GRMD baseline): 0.1036 fraction | Change from GRMD Baseline (fraction) (Contactin-2 (CNTN2), Post-Treatment to GRMD baseline): -0.068 fraction | Change from GRMD Baseline (fraction) (Cytotoxic T-lymphocyte protein 4 (CTLA4), EDG-5506 treatment to GRMD baseline): 0.1272 fraction | Change from GRMD Baseline (fraction) (Cytotoxic T-lymphocyte protein 4 (CTLA4), Post-Treatment to GRMD baseline): 0.041 fraction | Change from GRMD Baseline (fraction) (Delta-like protein 4 (DLL4), EDG-5506 treatment to GRMD baseline): 0.0825 fraction | Change from GRMD Baseline (fraction) (Delta-like protein 4 (DLL4), Post-Treatment to GRMD baseline): -0.0212 fraction | Change from GRMD Baseline (fraction) (Dickkopf-related protein 3 (DKK3), EDG-5506 treatment to GRMD baseline): 0.0897 fraction | Change from GRMD Baseline (fraction) (Dickkopf-related protein 3 (DKK3), Post-Treatment to GRMD baseline): -0.0042 fraction | 3-hydroxyisobutyrate dehydrogenase, mitochondrial (HIBADH): Change from GRMD Baseline (fraction) [1]: 0.1537 fraction | 14-3-3 protein beta/alpha (YWHAB): Change from GRMD Baseline (fraction) [1]: -0.0886 fraction | 14-3-3 protein sigma (SFN): Change from GRMD Baseline (fraction) [1]: 0.3172 fraction | 72 kDa type IV collagenase (MMP2): Change from GRMD Baseline (fraction) [1]: 0.1734 fraction | Adrenomedullin (ADM): Change from GRMD Baseline (fraction) [1]: -0.0855 fraction | Aggrecan core protein (ACAN): Change from GRMD Baseline (fraction) [1]: 0.167 fraction | Alpha-synuclein (SNCA): Change from GRMD Baseline (fraction) [1]: 0.0584 fraction | Apolipoprotein B (APOB): Change from GRMD Baseline (fraction) [1]: 0.074 fraction | Appetite-regulating hormone (GHRL): Change from GRMD Baseline (fraction) [1]: 0.1979 fraction | Atrial natriuretic factor (NPPA): Change from GRMD Baseline (fraction) [1]: 0.1398 fraction | BDNF/NT-3 growth factors receptor (NTRK2): Change from GRMD Baseline (fraction) [1]: 0.1937 fraction | BH3-interacting domain death agonist (BID): Change from GRMD Baseline (fraction) [1]: 0.1126 fraction | Bcl-2-related protein A1 (BCL2A1): Change from GRMD Baseline (fraction) [1]: -0.0911 fraction | Bone morphogenetic protein 6 (BMP6): Change from GRMD Baseline (fraction) [1]: 0.2555 fraction | Bone morphogenetic protein 10 (BMP10): Change from GRMD Baseline (fraction) [1]: 0.1398 fraction | C-X-C motif chemokine 10 (CXCL10): Change from GRMD Baseline (fraction) [1]: 0.1922 fraction | C-type mannose receptor 2 (MRC2): Change from GRMD Baseline (fraction) [1]: 0.1728 fraction | CD166 antigen (ALCAM): Change from GRMD Baseline (fraction) [1]: 0.2333 fraction | Cadherin-5 (CDH5): Change from GRMD Baseline (fraction) [1]: 0.1109 fraction | Carboxypeptidase E (CPE): Change from GRMD Baseline (fraction) [1]: 0.0406 fraction | Cell adhesion molecule 1 (CADM1): Change from GRMD Baseline (fraction) [1]: 0.0424 fraction | Chromogranin-A (CHGA): Change from GRMD Baseline (fraction) [1]: 0.2322 fraction | Ciliary neurotrophic factor receptor subunit alpha (CNTFR): Change from GRMD Baseline (fraction) [1]: 0.1045 fraction | Ck-beta-8-1 (CCL23): Change from GRMD Baseline (fraction) [1]: 0.0708 fraction | Coiled-coil domain-containing protein 80 (CCDC80): Change from GRMD Baseline (fraction) [1]: -0.0672 fraction | Collagen alpha-1(VIII) chain (COL8A1): Change from GRMD Baseline (fraction) [1]: 0.2128 fraction | Collagenase 3 (MMP13): Change from GRMD Baseline (fraction) [1]: -0.0939 fraction | Collectin-12 (COLEC12): Change from GRMD Baseline (fraction) [1]: 0.2006 fraction | Complement component C1q receptor (CD93): Change from GRMD Baseline (fraction) [1]: 0.1785 fraction | Complement decay-accelerating factor (CD55): Change from GRMD Baseline (fraction) [1]: -0.0957 fraction | Contactin-1 (CNTN1): Change from GRMD Baseline (fraction) [1]: 0.0923 fraction | Corticotropin (POMC): Change from GRMD Baseline (fraction) [1]: -0.096 fraction | Cytotoxic and regulatory T-cell molecule (CRTAM): Change from GRMD Baseline (fraction) [1]: -0.015 fraction | Dickkopf-related protein 1 (DKK1): Change from GRMD Baseline (fraction) [1]: 0.2889 fraction | Dickkopf-related protein 4 (DKK4): Change from GRMD Baseline (fraction) [1]: 0.1406 fraction | E3 ubiquitin-protein ligase ZNRF3 (ZNRF3): Change from GRMD Baseline (fraction) [1]: -0.0555 fraction | Ephrin type-A receptor 5 (EPHA5): Change from GRMD Baseline (fraction) [1]: 0.0759 fraction | Ephrin-A2 (EFNA2): Change from GRMD Baseline (fraction) [1]: 0.0899 fraction | Ephrin-A5 (EFNA5): Change from GRMD Baseline (fraction) [1]: 0.0839 fraction | Epidermal growth factor receptor (EGFR): Change from GRMD Baseline (fraction) [1]: 0.2223 fraction | Estradiol 17-beta-dehydrogenase 1 (HSD17B1): Change from GRMD Baseline (fraction) [1]: 0.1223 fraction | Fatty acid-binding protein, epidermal (FABP5): Change from GRMD Baseline (fraction) [1]: 0.0517 fraction | Fc receptor-like protein 3 (FCRL3): Change from GRMD Baseline (fraction) [1]: -0.0177 fraction | GDNF family receptor alpha-2 (GFRA2): Change from GRMD Baseline (fraction) [1]: 0.1299 fraction | Galectin-8 (LGALS8): Change from GRMD Baseline (fraction) [1]: 0.0779 fraction | Galectin-9 (LGALS9): Change from GRMD Baseline (fraction) [1]: -0.04 fraction | Gamma-enolase (ENO2): Change from GRMD Baseline (fraction) [1]: 0.1938 fraction | Gastrin-releasing peptide (GRP): Change from GRMD Baseline (fraction) [1]: 0.0715 fraction | Glutamate carboxypeptidase 2 (FOLH1): Change from GRMD Baseline (fraction) [1]: 0.301 fraction | Glypican-2 (GPC2): Change from GRMD Baseline (fraction) [1]: 0.2818 fraction | Gremlin-1 (GREM1): Change from GRMD Baseline (fraction) [1]: 0.117 fraction | Growth/differentiation factor 8 (MSTN): Change from GRMD Baseline (fraction) [1]: 0.0197 fraction | Growth/differentiation factor 11/8 (GDF11 MSTN): Change from GRMD Baseline (fraction) [1]: 0.039 fraction | Hemoglobin (HBA1 HBB): Change from GRMD Baseline (fraction) [1]: -0.194 fraction | Heparin cofactor 2 (SERPIND1): Change from GRMD Baseline (fraction) [1]: 0.095 fraction | Hepatitis A virus cellular receptor 2 (HAVCR2): Change from GRMD Baseline (fraction) [1]: -0.0356 fraction | High affinity immunoglobulin gamma Fc receptor I (FCGR1A): Change from GRMD Baseline (fraction) [1]: 0.1553 fraction | Histone-lysine N-methyltransferase EHMT2 (EHMT2): Change from GRMD Baseline (fraction) [1]: 0.3323 fraction | Hyaluronan and proteoglycan link protein 1 (HAPLN1): Change from GRMD Baseline (fraction) [1]: 0.0551 fraction | Insulin-like growth factor 1 receptor (IGF1R): Change from GRMD Baseline (fraction) [1]: 0.1691 fraction | Integrin alpha-V: beta-5 complex (ITGAV ITGB5): Change from GRMD Baseline (fraction) [1]: -0.051 fraction | Interleukin-4 receptor subunit alpha (IL4R): Change from GRMD Baseline (fraction) [1]: 0.1823 fraction | Interleukin-18-binding protein (IL18BP): Change from GRMD Baseline (fraction) [1]: 0.0143 fraction | Interstitial collagenase (MMP1): Change from GRMD Baseline (fraction) [1]: 0.0861 fraction | Leucine-rich repeat transmembrane neuronal protein 3 (LRRTM3): Change from GRMD Baseline (fraction) [1]: 0.2512 fraction | Limbic system-associated membrane protein (LSAMP): Change from GRMD Baseline (fraction) [1]: 0.1355 fraction | Lymphocyte activation gene 3 protein (LAG3): Change from GRMD Baseline (fraction) [1]: 0.164 fraction | Lysosome membrane protein 2 (SCARB2): Change from GRMD Baseline (fraction) [1]: 0.1336 fraction | MHC class I polypeptide-related sequence B (MICB): Change from GRMD Baseline (fraction) [1]: 0.2058 fraction | Matrilin-2 (MATN2): Change from GRMD Baseline (fraction) [1]: -0.0022 fraction | Melanoma-derived growth regulatory protein (MIA): Change from GRMD Baseline (fraction) [1]: 0.1875 fraction | Moesin (MSN): Change from GRMD Baseline (fraction) [1]: -0.082 fraction | Muellerian-inhibiting factor (AMH): Change from GRMD Baseline (fraction) [1]: 0.0498 fraction | NKG2D ligand 1 (ULBP1): Change from GRMD Baseline (fraction) [1]: -0.0534 fraction | NT-3 growth factor receptor (NTRK3): Change from GRMD Baseline (fraction) [1]: 0.1168 fraction | Netrin receptor UNC5C (UNC5C): Change from GRMD Baseline (fraction) [1]: 0.03 fraction | Neurogenic locus notch homolog protein 2 (NOTCH2): Change from GRMD Baseline (fraction) [1]: 0.2188 fraction | Neurogenic locus notch homolog protein 3 (NOTCH3): Change from GRMD Baseline (fraction) [1]: 0.0936 fraction | Nuclear receptor subfamily 1 group D member 1 (NR1D1): Change from GRMD Baseline (fraction) [1]: 0.048 fraction | Phospholipase A2 (PLA2G1B): Change from GRMD Baseline (fraction) [1]: 0.0754 fraction | Placenta growth factor (PGF): Change from GRMD Baseline (fraction) [1]: -0.066 fraction | Plasminogen (PLG): Change from GRMD Baseline (fraction) [1]: 0.2052 fraction | PolyUbiquitin K63-linked (UBC): Change from GRMD Baseline (fraction) [1]: 0.2167 fraction
